Assay results: patent US5656460A, “α-glycosyl derivative of the catecholamine or its salt, and its preparation and uses” (Kabushiki Kaisha Hayashibara Seibutsu Kagaku Kenkyujo, priority 1992, dated 1997)

Tests used:
[1] = tested on: 7-week-old dd mice; assay: Acute toxicity test (oral, mice); type: in vivo
Experimental: The α-glucosyl methyldopa preparations [I] and [II] were tested for their acute toxicity by orally administering them to 7-week-old dd mice.

[2] = Stability in aqueous solution (coloring degree at 400 nm relating to oxidation); type: physicochemical; settings: 100 mM phosphate buffer pH 8.0, 25° C.; for Stability compared with intact methyldopa: up to 9 days; for Coloring degree at 400 nm: 100 ppm
Experimental: Fifty ml aliquots of 100 mM phosphate buffer (pH 8.0) were distributed into 50 ml-flasks, added with the α-glucosyl methyldopa preparation [I] or [II] to give a concentration of 100 ppm, allowed to stand at 25° C., and sampled at a prescribed time interval to determine the stability of the preparation.
Intact methyldopa was used as a control. Five ml solution was collected from each flask at a prescribed time interval, and subjected to the measurement of the coloring degree at 400 nm relating to the oxidation of methyldopa.

[3] = tested on: α-glucosidase (EC 3.2.1.20); assay: Stability against hydrolysis by α-glucosidase; type: in vitro ADME, pig; settings: forms the catecholamine (methyldopa) and D-glucose
Source text: (6) Stability against hydrolysis (a) The α-glucosyl methyldopa preparations [I] and [II] are hydrolyzed by α-glucosidase (EC 3.2.1.20) specimen derived from pig liver to form methyldopa and D-glucose;

[4] = tested on: β-glucosidase; assay: Stability against hydrolysis by β-glucosidase; type: in vitro ADME
Source text: (6) Stability against hydrolysis

[5] = Reducing reaction by the Nelson-Somogyi's method; type: physicochemical
Source text: The α-glucosyl methyldopa preparations [I] and [II] turn green on the anthrone-sulfuric acid reaction. The preparations are negative on a reducing reaction by the Nelson-Somogy's method;

[6] = Solubility in solvent; type: physicochemical

SMILES	Acute toxicity: dose up to which no mouse died [1]	Stability compared with intact methyldopa [2]	Coloring degree at 400 nm ([2]; day 0)	Coloring degree at 400 nm ([2]; day 1)	Coloring degree at 400 nm ([2]; day 3)	Coloring degree at 400 nm ([2]; day 5)	Coloring degree at 400 nm ([2]; day 9)	Hydrolysis by α-glucosidase [3]	Hydrolysis by β-glucosidase [4]	Reducing reaction / reducing activity [5]	Solubility in benzen [6]	Solubility in chloroform [6]	Solubility in ethanol [6]	Solubility in ether [6]	Solubility in methanol [6]	Solubility in water [6]
CC(N)(Cc1ccc(O[C@H]2O[C@H](CO)[C@@H](O)[C@H](O)[C@H]2O)c(O)c1)C(=O)O (stereo partly drawn) [α-glucosyl methyldopa preparation [II], 3-[3-hydroxy-(4-α-D-glucopyranosyl)]-2-methylalanine]	≥ 5000 mg/kg	much stabler than intact methyldopa	0.0	0.0	0.0	0.0	0.0	hydrolyzed	not hydrolyzed	negative	insoluble	insoluble	slightly soluble	insoluble	slightly soluble	readily soluble
CC(N)(Cc1ccc(O)c(O[C@H]2O[C@H](CO)[C@@H](O)[C@H](O)[C@H]2O)c1)C(=O)O (stereo partly drawn) [α-glucosyl methyldopa preparation [I], 3-[4-hydroxy-(3-α-D-glucopyranosyl)]-2-methylalanine]	≥ 5000 mg/kg	much stabler than intact methyldopa	0.0	0.0	0.0	0.0	0.0	hydrolyzed	not hydrolyzed	negative	insoluble	insoluble	slightly soluble	insoluble	slightly soluble	readily soluble
